Laboratory results taken from patent publication US7091198B1, “2,5-disubstituted pyrimidine derivatives” (Bayer HealthCare AG, priority 2002, dated 2006).

The compounds below were run on cGMP in primary cortical neurons (assay: Increase of cGMP in primary cortical neurons). Settings: Primary cortical neuron, 20 min; rat embryonic primary cortical neurons; 20 min incubation at 37° C. with IBMX; triplicate determination; more than 2-fold increase compared with the control; read-out: concentration leading to a statistically significant increase in cGMP.
Format: cell-based
Description: Increase of cGMP in Primary Cortical Neurons
Rat embryos (embryonic day 17–19) are decapitated, and the cerebrum is removed and incubated with 5 ml of papain solution and 250 μl of DNAse (papain kit from Cell-System) at 37° C. for 30 min, homogenized using a Pasteur pipette and centrifuged at 1200 rpm for 5 min. The supernatant is removed, the cell pellet resuspended (in 2.7 ml of EBSS [Earl's balanced salt solution], 300 μl of ovomucoid/albumin (conc.) solution, 150 μl of DNAse; papain kit from Cell-System), layered over 5 ml of ovomucoid/albumin solution and centrifuged at 700 rpm for 6 min. The supernatant is removed, the cells are resuspended in cultivation medium (Gibco neurobasal medium, B27 Supplement 50×1 ml/100 ml, 2 mM L-glutamine), counted (approx. 150 000 cells/well) and plated out on poly-D-lysine-coated 96-well plates (Costar) with 200 μl/well. After 6–7 days at 37° C. (5% CO2), the neurons are freed of culture medium and washed once with assay buffer (154 mM NaCl, 5.6 mM KCl, 2.3 mM CaCl2.2H2O, 1 mM MgCl2, 5.6 mM glucose, 8.6 mM HEPES (4-(2-hydroxyethyl)piperazine-1-ethanesulfonic acid), pH=7.4). 100 μl/well test substance are dissolved in assay buffer and then 100 μl/well IBMX (3-isobutyl-1-methylxanthine; dissolved in 50 mM ethanol, diluted with assay buffer to a final concentration of 100 μM) are added. After incubation at 37° C. for 20 min, the assay buffer is replaced by 200 μl/well of lysis buffer (cGMP EIA RPN 226 from Amersham Pharmacia Biotech), and the cGMP content of the lystates is determined using an EIA assay kit.
The concentrations indicated in Table 1 lead to a statistically significant increase in cGMP (triplicate determination; more than 2-fold increase compared with the control)

Row | Compound | minimal effective concentration
1 | CO[C@H]1CN(c2cnc(-c3nn(Cc4ccccc4F)c4ncccc34)nc2)C[C@@H]1OC [Example 6] | 0.27 µM
2 | Fc1ccccc1Cn1nc(-c2ncc(N3CC4CNCC(C3)O4)cn2)c2cccnc21 [Example 10] | 1.2 µM
3 | O=C1CCCCC1c1cnc(-c2nn(Cc3ccccc3F)c3ncccc23)nc1 (centres unmarked) [Example 13, 2-{2-[1-(2-Fluorobenzyl)-1H-pyrazol[3,4-b]pyridin-3-yl]-5-pyrimidinyl}-cyclohexanone] | 0.27 µM
4 | Fc1ccccc1Cn1nc(-c2ncc(N3CC4CCC(C3)O4)cn2)c2cccnc21 [Example 19, 1-(2-Fluorobenzyl)-3-[5-(8-oxa-3-azabicyclo[3.2.1]oct-3-yl)-2-pyrimidinyl]-1H-pyrazolo[3,4-b]pyridine] | 0.27 µM
5 | CO[C@H]1CCN(c2cnc(-c3nn(Cc4ccccc4F)c4ncccc34)nc2)C1 [Example 20, 1-(2-Fluorobenzyl)-3-{5-[(3S)-3-methoxy-1-pyrrolidinyl]-2-pyrimidinyl}-1 H-pyrazolo[3,4-b]pyridine] | 0.27 µM
6 | COc1ccccc1-c1cnc(-c2nn(Cc3ccccc3F)c3ncccc23)nc1 [Example 27] | 0.9 µM
7 | Fc1ccccc1Cn1nc(-c2ncc(-c3cn[nH]c3C3CC3)cn2)c2cccnc21 [Example 36, 3-[5-(5-Cyclopropyl-1H-pyrazol-4-yl)-2-pyrimidinyl]-1-(2-fluorobenzyl)-1 H-pyrazolo[3,4-b]pyridine] | 0.27 µM
8 | O=C1CCN(c2cnc(-c3nn(Cc4ccccc4F)c4ncccc34)nc2)C1 [Example 38, 1-{2-[1-(2-Fluorobenzyl)-1H-pyrazol[3,4-b]pyridin-3-yl]-5-pyrimidinyl}-3-pyrrolidinone] | 0.27 µM
